Values of other authors in PMC7395068, “The evolution of strategies to minimise the risk of human drug-induced liver injury (DILI) in drug discovery and development” (Archives of Toxicology, 2020).
Where two headings read alike, the source gives them in different places.

Assays:
[1] = cited from earlier work
[2] = system: THLE or HepG2 cells, isolated mitochondria, BSEP; details: In vitro Assay; ref Aleo 2019; cited from earlier work
[3] = system: HepG2 C3A spheroid, BSEP, Glu/Gal in HepG2 cells, bioactivation; details: cited from earlier work
hLiMTs = details: In vitro Assay; ref Proctor 2017; cited from earlier work
PHH = details: In vitro Assay; ref Proctor 2017; cited from earlier work
[4] = ref Chen 2016; cited from earlier work
[5] = system: THLE-Null and THLE-3A4 cells; details: In vitro Assay; ref Gustafsson 2014; cited from earlier work
[6] = system: primary human hepatocytes, NIH3T3 fibroblasts, BSEP, CYP3A4; details: In vitro Assay; ref Schadt 2015; cited from earlier work
HepG2 cells [7] = details: cited from earlier work; for Cluser analysis / Structural based (HCI): In vitro Assay, ref Persson 2013
[8] = system: HepG2 cells, primary human hepatocytes; details: In vitro Assay; ref Garside 2014; cited from earlier work
human hepatocytes = details: In vitro Assay; ref Xu 2008; cited from earlier work
rBsep = details: In vitro Assay; ref Dawson 2012; cited from earlier work
HepG2 cells [9] = details: In vitro Assay; ref O'Brien 2006; cited from earlier work
PHH spheroids = details: In vitro Assay; ref Vorrink 2018; cited from earlier work
[10] = In vitro Assay, ref Williams 2019

## CC(C)(C)NCC(O)c1ccc(O)c(CO)c1 (centres unmarked) [albuterol]
[1]; ref Aleo 2019
  In vivo DILI: -VE
[1]; ref Proctor 2017
  In vivo DILI: -VE
[1]; ref Williams 2019
  In vivo DILI: -VE
[2]
  Partition Hybrid HRM Score: -VE
  Ro2 Hybrid HRM Score: -VE
[3]; ref Williams 2019
  Bayesian Machine Learning: -VE

## Cc1c(N(C)C)c(=O)n(-c2ccccc2)n1C [aminopyrine]
[3]; ref Williams 2019
  Bayesian Machine Learning: +VE

## CN1[C@@H]2CC[C@H]1C[C@@H](OC(c1ccccc1)c1ccccc1)C2 [benztropine]
[1]; ref Aleo 2019
  In vivo DILI: -VE
[1]; ref Proctor 2017
  In vivo DILI: -VE
[1]; ref Williams 2019
  In vivo DILI: -VE
[2]
  Ro2 Hybrid HRM Score: -VE
hLiMTs
  hLiMTs ATP <100uM: +VE (IC50 threshold of 100 µM)
PHH
  PHH ATP <100uM: +VE (IC50 threshold of 100 µM)
[3]; ref Williams 2019
  Bayesian Machine Learning: -VE
[4]
  DILI +VE (5-8), DILI -VE (-4): -VE
  DILI severity category: vNo-DILI-Concern

## Nc1c(CC(=O)O)cccc1C(=O)c1ccc(Br)cc1 [bromfenac, reference compound]
[1]; […]
  In vivo DILI: +VE
[1]; ref Aleo 2019
  In vivo DILI: +VE
[1]; ref Gustafsson 2014
  In vivo DILI: +VE
[1]; ref Persson 2013
  In vivo DILI: +VE
[1]; ref Schadt 2015
  In vivo DILI: +VE
[1]; ref Williams 2019
  In vivo DILI: +VE
[2]
  Partition Hybrid HRM Score: +VE
  Ro2 Hybrid HRM Score: +VE
[5]
  THLE-Null: -VE
  THLE-Null/3A4: -VE
[6]
  Cellular toxicity (3T3 cells): -VE
  Combined Assay: -VE
  GSH adduct HML: -VE
  Hepatocyte cellular toxicity: -VE
  MitoTox 3T3: -VE
  TDI CYP3A4: -VE
  hBSEP inhibition: -VE
[3]; [10]
  Bayesian Machine Learning: +VE
[4]
  DILI +VE (5-8), DILI -VE (-4): +VE
  DILI severity category: vMost-DILI-Concern
HepG2 cells [7]
  Cluser analysis: -VE
  Structural based (HCI): -VE
HepG2 cells [7]; Structural based (HCI), HepG2, ref Persson et al. 2013
  DILI in vitro assay prediction, Persson (2013): negative

## CN(C)CCCN1c2ccccc2CCc2ccc(Cl)cc21 [clomipramine]
[3]; [10]
  Bayesian Machine Learning: +VE
[8]
  Cluster 1-6 +VE Assay: +VE
Human hepatocytes
  Structural based (HCI): -VE

## N[C@@H]1CON=C1O [cycloserine]
[5]
  THLE-Null: -VE
rBsep
  Inhibition of rBsep cutoff<1& cmax u>.2: -VE
  Inhibition of rBsep cutoff<3: -VE
[3]; [10]
  Bayesian Machine Learning: -VE

## O=C1[C@H](CC[C@H](O)c2ccc(F)cc2)[C@@H](c2ccc(O)cc2)N1c1ccc(F)cc1 [ezetimibe]
[1]; ref Williams 2019
  In vivo DILI: +VE
[3]; [10]
  Bayesian Machine Learning: -VE
[4]
  DILI +VE (5-8), DILI -VE (-4): +VE
  DILI severity category: vLess-DILI-Concern

## Cc1onc(-c2c(F)cccc2Cl)c1C(=O)N[C@@H]1C(=O)N2[C@@H]1SC(C)(C)[C@@H]2C(=O)O [flucloxacillin]
[1]; ref Dawson 2012
  In vivo DILI: +VE
[1]; ref Gustafsson 2014
  In vivo DILI: +VE
[1]; ref Proctor 2017
  In vivo DILI: +VE
[1]; ref Williams 2019
  In vivo DILI: +VE
[5]
  THLE-Null: -VE
  THLE-Null/3A4: -VE
hLiMTs
  hLiMTs ATP <100uM: -VE
rBsep
  Inhibition of rBsep cutoff<1& cmax u>.2: -VE
  Inhibition of rBsep cutoff<3: -VE
PHH
  PHH ATP <100uM: +VE (IC50 threshold of 100 µM)
[3]; [10]
  Bayesian Machine Learning: +VE

## Nc1nc(F)nc2c1ncn2[C@@H]1O[C@H](CO)[C@@H](O)[C@@H]1O [fludarabine]
[1]; ref Proctor 2017
  In vivo DILI: -VE
[1]; ref Williams 2019
  In vivo DILI: -VE
hLiMTs
  hLiMTs ATP <100uM: +VE (IC50 threshold of 100 µM)
PHH
  PHH ATP <100uM: -VE
[3]
  Bayesian Machine Learning: -VE
[4]
  DILI +VE (5-8), DILI -VE (-4): -VE
  DILI severity category: vNo-DILI-Concern

## CC(C)Cc1ccc(CC(=O)O)cc1 [ibufenac]
[1]; ref Garside 2014
  In vivo DILI: +VE
[1]; ref Schadt 2015
  In vivo DILI: +VE
[1]; ref Williams 2019
  In vivo DILI: +VE
[6]
  Cellular toxicity (3T3 cells): -VE
  Combined Assay: +VE
  GSH adduct HML: +VE
  Hepatocyte cellular toxicity: -VE
  MitoTox 3T3: -VE
  TDI CYP3A4: -VE
  hBSEP inhibition: -VE
[3]; [10]
  Bayesian Machine Learning: +VE
[4]
  DILI +VE (5-8), DILI -VE (-4): +VE
  DILI severity category: vMost-DILI-Concern
[8]
  Cluster 1-6 +VE Assay: +VE

## O=C(NC1CCN(CCc2c[nH]c3ccccc23)CC1)c1ccccc1 [indoramin]
[1]; ref Proctor 2017
  In vivo DILI: -VE
[1]; ref Williams 2019
  In vivo DILI: -VE
hLiMTs
  hLiMTs ATP <100uM: -VE
PHH
  PHH ATP <100uM: -VE
[3]; ref Williams 2019
  Bayesian Machine Learning: -VE

## CCC(C)n1ncn(-c2ccc(N3CCN(c4ccc(OCC5COC(Cn6cncn6)(c6ccc(Cl)cc6Cl)O5)cc4)CC3)cc2)c1=O (centres unmarked) [itraconazole]
HepG2 cells [9]
  Structural based (HCI): +VE
[1]; ref O'Brien 2006
  In vivo DILI: +VE
[1]; ref Persson 2013
  In vivo DILI: +VE
[1]; ref Proctor 2017
  In vivo DILI: +VE
[1]; ref Schadt 2015
  In vivo DILI: +VE
[1]; ref Williams 2019
  In vivo DILI: +VE
[6]
  Cellular toxicity (3T3 cells): -VE
  Combined Assay: +VE
  GSH adduct HML: -VE
  Hepatocyte cellular toxicity: -VE
  MitoTox 3T3: +VE
  TDI CYP3A4: -VE
  hBSEP inhibition: -VE
hLiMTs
  hLiMTs ATP <100uM: +VE (IC50 threshold of 100 µM)
PHH
  PHH ATP <100uM: -VE
[3]; [10]
  Bayesian Machine Learning: +VE
[4]
  DILI +VE (5-8), DILI -VE (-4): +VE
  DILI severity category: vMost-DILI-Concern
HepG2 cells [7]
  Cluser analysis: +VE
  Structural based (HCI): +VE

## Cc1ccc(Cl)c(Nc2ccccc2C(=O)O)c1Cl [meclofenamate]
[1]; ref Williams 2019
  In vivo DILI: -VE
[1]; ref Xu 2008
  In vivo DILI: +VE
[3]; ref Williams 2019
  Bayesian Machine Learning: +VE
Human hepatocytes
  Structural based (HCI): +VE

## CN1C[C@H](CNC(=O)OCc2ccccc2)C[C@@H]2c3cccc4c3c(cn4C)C[C@H]21 [metergoline]
[3]; ref Williams 2019
  Bayesian Machine Learning: -VE

## COC(=O)C1=C(C)NC(C)=C(C(=O)OCCN(C)Cc2ccccc2)C1c1cccc([N+](=O)[O-])c1 (centres unmarked) [nicardipine]
PHH spheroids
  hLiMTs ATP <20 x Cmax: -VE
[3]; [10]
  Bayesian Machine Learning: -VE

## CN1Cc2c(N)cccc2C(c2ccccc2)C1 (centres unmarked) [nomifensine]
PHH spheroids
  hLiMTs ATP <20 x Cmax: +VE (IC20 < 20 × Cmax.tot cut-off)
HepG2 cells [9]
  Structural based (HCI): -VE
[1]; ref Aleo 2019
  In vivo DILI: +VE
[1]; ref Dawson 2012
  In vivo DILI: +VE
[1]; ref Garside 2014
  In vivo DILI: +VE
[1]; ref Gustafsson 2014
  In vivo DILI: +VE
[1]; ref O'Brien 2006
  In vivo DILI: -VE
[1]; ref Persson 2013
  In vivo DILI: +VE
[1]; ref Vorrink 2018
  In vivo DILI: +VE
[1]; ref Xu 2008
  In vivo DILI: +VE
[2]
  Partition Hybrid HRM Score: +VE
  Ro2 Hybrid HRM Score: -VE
[5]
  THLE-Null: -VE
rBsep
  Inhibition of rBsep cutoff<1& cmax u>.2: -VE
[4]
  DILI +VE (5-8), DILI -VE (-4): +VE
  DILI severity category: vMost-DILI-Concern
[8]
  Cluster 1-6 +VE Assay: -VE
HepG2 cells [7]
  Cluser analysis: -VE
  Structural based (HCI): -VE
Human hepatocytes
  Structural based (HCI): -VE

## O=c1[nH]c2ccccc2n1C1CCN(CCCC(c2ccc(F)cc2)c2ccc(F)cc2)CC1 [pimozide]
HepG2 cells [9]
  Structural based (HCI): -VE
[1]; ref O'Brien 2006
  In vivo DILI: -VE
[1]; ref Proctor 2017
  In vivo DILI: +VE
[1]; ref Williams 2019
  In vivo DILI: +VE
hLiMTs
  hLiMTs ATP <100uM: +VE (IC50 threshold of 100 µM)
PHH
  PHH ATP <100uM: -VE
[3]; ref Williams 2019
  Bayesian Machine Learning: +VE
[4]
  DILI +VE (5-8), DILI -VE (-4): -VE
  DILI severity category: vNo-DILI-Concern

## CN(C)C(=O)Oc1ccc[n+](C)c1 [pyridostigmine]
[3]
  Bayesian Machine Learning: -VE

## Cc1c(C(=O)NN2CCCCC2)nn(-c2ccc(Cl)cc2Cl)c1-c1ccc(Cl)cc1 [rimonabant]
[1]; ref Gustafsson 2014
  In vivo DILI: -VE
[1]; ref Williams 2019
  In vivo DILI: -VE
[5]
  THLE-Null: +VE
  THLE-Null/3A4: +VE
[3]; ref Williams 2019
  Bayesian Machine Learning: +VE

## Cc1cc2c(cc1CC(=O)c1sccc1S(=O)(=O)Nc1onc(C)c1Cl)OCO2 [sitaxentan]
[1]; ref Aleo 2019
  In vivo DILI: +VE
[1]; ref Proctor 2017
  In vivo DILI: +VE
[1]; ref Schadt 2015
  In vivo DILI: +VE
[1]; ref Williams 2019
  In vivo DILI: +VE
[2]
  Partition Hybrid HRM Score: +VE
  Ro2 Hybrid HRM Score: +VE
[6]
  Cellular toxicity (3T3 cells): -VE
  Combined Assay: +VE
  GSH adduct HML: +VE
  Hepatocyte cellular toxicity: +VE
  MitoTox 3T3: -VE
  TDI CYP3A4: +VE
  hBSEP inhibition: +VE
hLiMTs
  hLiMTs ATP <100uM: -VE
PHH
  PHH ATP <100uM: -VE
[3]; [10]
  Bayesian Machine Learning: +VE
[4]
  DILI +VE (5-8), DILI -VE (-4): +VE
  DILI severity category: vMost-DILI-Concern

## Cc1cc(CC(=O)O)n(C)c1C(=O)c1ccc(Cl)cc1 [zomepirac]
HepG2 cells [9]
  Structural based (HCI): +VE
[1]; […]
  In vivo DILI: +VE
[1]; ref Gustafsson 2014
  In vivo DILI: -VE
[1]; ref O'Brien 2006
  In vivo DILI: -VE
[1]; ref Proctor 2017
  In vivo DILI: -VE
[1]; ref Schadt 2015
  In vivo DILI: +VE
[1]; ref Williams 2019
  In vivo DILI: -VE
[1]; ref Xu 2008
  In vivo DILI: -VE
[5]
  THLE-Null: -VE
  THLE-Null/3A4: -VE
[6]
  Cellular toxicity (3T3 cells): -VE
  Combined Assay: +VE
  GSH adduct HML: +VE
  Hepatocyte cellular toxicity: -VE
  MitoTox 3T3: -VE
  TDI CYP3A4: -VE
  hBSEP inhibition: -VE
hLiMTs
  hLiMTs ATP <100uM: -VE
PHH
  PHH ATP <100uM: -VE
[3]; [10]
  Bayesian Machine Learning: +VE
Human hepatocytes
  Structural based (HCI): -VE
